Assay results published in ChEMBL document CHEMBL4000239, “A novel piperazine linked β-amino alcohols bearing a benzosuberone scaffolds as anti-proliferative agents” (2017).

Legend:
Assay type in all cases: functional
MDA-MB-231 = experiment: Cytotoxicity against human MDA-MB-231 cells assessed as growth inhibition after 48 hrs by SRB assay; conditions: MDA-MB-231, 48 h
A549 = experiment: Cytotoxicity against human A549 cells assessed as growth inhibition after 48 hrs by SRB assay; conditions: A549, 48 h
HeLa = experiment: Cytotoxicity against human HeLa cells assessed as growth inhibition after 48 hrs by SRB assay
[1] = Cytotoxicity against human MiaPaCa cells assessed as growth inhibition after 48 hrs by SRB assay; conditions: MIA PaCa-2, 48 h

| Compound | GI50 (MDA-MB-231) [nM] | GI50 (A549) [nM] | GI50 (HeLa) [nM] | GI50 [1] [nM] |
| --- | --- | --- | --- | --- |
| COc1ccccc1N1CCN(CC(O)COCC2=C(Cl)c3cc(C)c(C)cc3CCC2)CC1 (stereo not drawn) | 3000 | 2100 | 2400 | 2800 |
| Cc1cc2c(cc1C)C(Cl)=C(COCC(O)CN1CCCCC1)CCC2 (stereo not drawn) | 2100 | 1500 | 1700 | 2600 |
| Cc1cc2c(cc1C)C(Cl)=C(COCC(O)CN1CCC(Cc3ccccc3)CC1)CCC2 (stereo not drawn) | 2900 | 1800 | 1400 | 1200 |
| CCOC(=O)N1CCN(CC(O)COCC2=C(Cl)c3cc(C)c(C)cc3CCC2)CC1 (stereo not drawn) | 7300 | 4000 | 7200 | 7900 |
| Cc1cc2c(cc1C)C(Cl)=C(COCC(O)CN1CCSCC1)CCC2 (stereo not drawn) | 2900 | 900 | 1000 | 1500 |
| Cc1cc2c(cc1C)C(Cl)=C(COCC(O)CN1CCOCC1)CCC2 (stereo not drawn) | 7900 | 5200 | 7400 | 5600 |
| Cc1cc2c(cc1C)C(Cl)=C(COCC(O)CN1CCN(c3ccccc3F)CC1)CCC2 (stereo not drawn) | 9000 | 6300 | 7800 | 9600 |
| COC(=O)Nc1nc2cc(C(=O)c3cccs3)ccc2[nH]1 [NOCODAZOLE] | 65 | 90 | 86 | 91 |
| Cc1cc2c(cc1C)C(Cl)=C(COCC(O)CN1CCN(C)CC1)CCC2 (stereo not drawn) | 20800 | 18200 | 16300 | 24400 |
| Cc1cc2c(cc1C)C(Cl)=C(COCC(O)CN1CCN(c3ccccc3)CC1)CCC2 (stereo not drawn) | 7800 | 5800 | 6900 | 8800 |
| Cc1cc2c(cc1C)C(Cl)=C(COCC(O)CN1CCN(c3ccc([N+](=O)[O-])cc3)CC1)CCC2 (stereo not drawn) | 10 | 23 | 97 | 56 |
| Cc1cc2c(cc1C)C(Cl)=C(COCC(O)CN1CCN(c3ccc(C(F)(F)F)cc3)CC1)CCC2 (stereo not drawn) | 2500 | 3000 | 3800 | 2000 |
